From patent US12011475B2, “Polypeptide, polypeptide fragment, derivative thereof, and applications thereof” (CHENGDU HUITAI BIOMEDICINE CO., LTD., priority 2017, dated 2024) come the findings set out here.

Holding throughout (assay type): in vivo
For test [1], the system named is rat with pulmonary fibrosis induced by bleomycin. As to the kind of experiment: Masson staining score, intratracheal instillation (Example 19). Conditions: fibrosis pathology score, grade 0 to 8, 8 mg/kg peptide + 4 mg/kg bleomycin, Mean ± SEM. From the text:
(§1) The lung tissue of the rats of Example 9 was taken, fixed with 4% paraformaldehyde and embedded in paraffin. The wax block embedded the lung tissue was sectioned along the largest cross section. Pathological changes in lung tissue were observed using staining by Masson's trichrome stain (Masson). Pathological changes in lung tissue were observed under a light microscope (low magnification) at a magnification of 100 times (the result is shown in FIG. 15).
(§2) According to the Modified Ashcroft scale scoring method, the degree of pulmonary fibrosis was evaluated according to the range of lesions and could be divided into 0 to 8 grades.
(§3) The rats in model group were intratracheally instilled with bleomycin (4 mg/kg); after anesthesia, the rats in treatment groups were intratracheally instilled with bleomycin (4 mg/kg) and corresponding therapeutic drug (8 mg/kg) simultaneously. The remaining implementation steps were the same as the description of Example 9.
The lung tissue of the control group, the model group and the treatment groups of Example 15 was taken and subjected to Masson staining and scoring. The specific implementation steps were the same as the description of Example 13.

Test [2] shares this test system. Briefly: Lung coefficient, intratracheal instillation (Example 17). Conditions: lung mass (mg)/body weight (g), 8 mg/kg peptide + 4 mg/kg bleomycin, Mean ± SEM. On the procedure:
The rats in Example 2 were weighed and sacrificed by anesthesia overdose. Lung tissue of both sides of the rats was taken, and the connective tissue around the lung tissue was carefully removed. After washing with saline and dried with a filter paper, the wet weight of the whole lung was weighted by an electronic balance. After the wet weight of the whole lung was weighted by the electronic balance, the lung coefficient was calculated according to the formula, lung coefficient=lung mass (mg)/body weight (g) (the result is shown in FIG. 1).
as §3
The experimental rats of the control group, the model group and the treatment groups of Example 15 were taken to determine the lung coefficient. The implementation steps were the same as the description of Example 2.

The test system is the same in test [3]. As to the kind of experiment: Rat weight, intratracheal instillation (Examples 15-16). The conditions noted are these: Day 14/Day 0, 8 mg/kg peptide + 4 mg/kg bleomycin simultaneously, Mean ± SEM. The protocol:
The rats were weighed before administration, intramuscular injection of Zoletil anesthetic solution, the dose was 65 mg/kg. After the rats entered the stage III anesthesia, the experimental rats were bond in the incline lateral decubitus. A size 12 gavage needle was inserted into rat trachea through oral cavity along the glottis to infuse the drug. The experimental animals were fed normally from the 1st day to the 14th day after intratracheal administration, and were weighed regularly every day without restriction of feed or drinking water.
as §3
The model and the administration route were referred to Example 15. The experimental rats in the control group, the model group, and the treatment groups described in Example 15 were weighted every day from the 1st day until the 14th day. When weighing, the “unstable weighing” of the electronic balance was selected, and an appropriate number of weighing and a degree of tolerable instability during the reading phase were set according to the instructions to weigh and record the readings. […]

Test [4] has the same test system. Briefly: Masson staining score, intravenous injection (Example 24). Conditions: fibrosis pathology score, grade 0 to 8; intravenous injection 10 mg/kg once a day, 4th to 13th day after bleomycin 4 mg/kg; Mean ± SEM.
From the text: as §1, §2
The rats were weighed before administration, intramuscularly injected with 65 mg/kg Zoletil anesthetic solution. After the rats entered the stage III anesthesia, the experimental rats were fixated in the lateral decubitus. Gavage needle size 12 was inserted into rat trachea through oral cavity along the glottis to instill sterile saline or bleomycin (4 mg/kg) (Day 0). After the anesthesia, the rats in control group were intratracheally instilled with an equal volume of sterile saline, and the rats in model group and treatment groups were intratracheally instilled with bleomycin (4 mg/kg). On the 4th day, the sterile saline or peptide drug was injected through the tail vein once a day until the 13th day. […]

For test [5], the system named is active TGF-β. Briefly: Active TGF-β content in rat lung tissue by ELISA (Example 27). Conditions: active TGF-β/total TGF-β; intravenous injection 10 mg/kg once a day, 4th to 13th day after bleomycin 4 mg/kg; Mean ± SEM. The protocol: The rat lung tissue in the model group, the control group and the N4 treatment group of Example 9 was taken, and homogenized using RIPA lysate (100 mg of lung tissue corresponding to 1 mL of lysate), centrifuged and the supernatant was taken, and then the protein concentration was determined by BCA method. Equal amounts of protein samples were taken and the active TGF-β content was measured by enzyme-linked immunosorbent assay ELISA (Promega, Cat. No. G7591) (the result is shown in FIG. 10), and one-way ANOVA was used for biostatistical analysis.
The rats were weighed before administration, intramuscularly injected with 65 mg/kg Zoletil anesthetic solution. After the rats entered the stage III anesthesia, the experimental rats were fixated in the lateral decubitus. Gavage needle size 12 was inserted into rat trachea through oral cavity along the glottis to instill sterile saline or bleomycin (4 mg/kg) (Day 0). After the anesthesia, the rats in control group were intratracheally instilled with an equal volume of sterile saline, and the rats in model group and treatment groups were intratracheally instilled with bleomycin (4 mg/kg). […]
The rat lung tissue in the model group, the control group and the treatment groups of Example 20 was taken, and the active TGF-β content was measured by ELISA. […]
Background: An ELISA detects its analyte on a solid surface through an enzyme-linked reagent.

Ends that are not written are not given here.

Take YRVRFLAKENVTQDAEDN [N1]: the “Masson Score” value in test [1] is recorded as 3.93 ± 0.09; in test [4] it was 3.85 ± 0.11. Moreover, the “Lung Coefficient” value in test [2] is 8.49 ± 0.09. The “Weight Ratio” value in test [3] was found to be 1.05 ± 0.02. The “TGF-β (active TGF-β content in lung tissue)” value in test [5] came out at 13.15 ± 0.48.
